# Values of other authors, collected in US20160367620A1, “GLUTATHIONE” (priority 2015, published 2016).
# Columns and labels:
# [1] = tested on: NFκB and COX-2; conditions: cited from earlier work
# [2] = tested on: HIV-1 LTR; conditions: Jurkat cells; cited from earlier work
# [3] = tested on: human IL-4 production; conditions: stimulated peripheral blood T cells, Th0- and Th2-like T cell clones; cited from earlier work
# [4] = tested on: NFκB activation by LPS; conditions: rats; cited from earlier work
# [5] = tested on: murine macrophage J774 cells; conditions: pretreatment; cited from earlier work
# [6] = tested on: human immunodeficiency virus (HIV) expression; conditions: U1 cells; cited from earlier work
# [7] = tested on: influenza virus specific lymphocytes; conditions: cited from earlier work
# [8] = tested on: human alveolar macrophages (AM); conditions: AM previously exposed to LPS; cited from earlier work
# [9] = tested on: HUVEC and QG90 cell; conditions: pretreatment of HUVEC, IL-1 induced; cited from earlier work
smiles,measurement,setting,value
"CC(=O)N[C@@H](CS)C(=O)O [NAC, N-Acetyl-L-Cysteine]",activation of NFκB and COX-2 by H. pylori infection,[1],inhibited
same,induction of HIV-1 LTR-mediated gene expression by TNF-α and Tat,[2],significantly suppressed
same,human IL-4 production,[3],decreased in a dose-dependent manner
same,NFκB activation by LPS,[4],decreased
same,decrease of lung lavage neutrophil count,[4],six fold
same,protection of macrophages against SNAP,[5],protected
same,cytotoxic or cytostatic effects,[6],absence of cytotoxic or cytostatic effects
same,"induction of HIV expression mediated by PMA, TNF-α, or IL-6",[6],suppressed in a dose-dependent fashion
same,IFN γ production,[7],increased
same,influenza virus specific lymphocyte proliferation,[7],increased
same,specific activity of influenza specific CD8+ CTL's,[7],enhanced
same,IL-12 secretion,[8],enhanced
same,cell-to-cell attachment of cancer cells to HUVEC,[9],efficiently blocked the cell-to-cell attachment in a dose-dependent manner
